Consider 17 compounds from article PMC5867678 (Journal of Medicinal Chemistry, 2018).

A short description of one data set: Mouse pharmacokinetics. The note with it: in vivo; for AUC(0-t) / Cmax: female, BALB/c, 40 mg/kg; for AUC(0-t) / Cmax / bioavailability: po; for bioavailability: male.
In data set [1] the test system is Salmonella typhimurium (TA98 and TA100). Put plainly: Ames test (Mini-Ames reverse mutation screen). It counts as cell-based. The note with it: strains TA98 and TA100, with or without S9. The source says:
Two strains of Salmonella typhimurium (TA98 and TA100) were employed, in the presence and absence of metabolic activation (rat liver S9). Positive controls (2-aminoanthracene, 2-nitrofluorene, and sodium azide) and a negative (DMSO solvent) control were included.
(In the Ames test, an excess of revertant colonies over the control signals mutagenicity.)

A further data set can be described thus: Rat pharmacokinetics. The arrangement: species or system Sprague-Dawley rats. As to conditions: male, Sprague-Dawley, in vivo, po, 40 mg/kg. As for the experimental part:
All studies were conducted in fasted animals (either male Sprague-Dawley rats or female golden Syrian hamsters) by WuXi AppTec (Shanghai) Co., Ltd. Intravenous dosing (at 1 mg/kg for rats and 2 mg/kg for hamsters) utilized a solution formulation of 20% NMP and 40% PEG-400 in citrate buffer (pH 3). In rats, oral dosing (at 40–50 mg/kg) was as a suspension in 0.08% Tween 80 and 0.5% CMC in water, whereas PEG-400 was the vehicle employed for oral dosing in hamsters (at 40–50 mg/kg). Plasma samples (at 0.083 for iv only, 0.25, 0.5, 1, 2, 4, 8, and 24 h) were analyzed by LC–MS/MS, and the PK parameters were calculated using Phoenix WinNonlin software (version 6.3).

The nature of data set [2]: Permeability assay in MDCK-MDR1 cells. As to conditions: dog.
A further data set can be described thus: Hamster pharmacokinetics. The arrangement: species or system golden Syrian hamsters. As to conditions: female, golden Syrian, in vivo, po.
Data set [3] is described as follows: Microsomal stability, human liver microsomes. It counts as in vitro ADME. The note with it: pooled human liver microsomes; for remaining at 0.5 h, 0.5 μM: 30 min (data in parentheses).
Data set [4] in a line: Microsomal stability, CD-1 mouse liver microsomes. Type of data set: in vitro ADME. The note with it: for remaining at 0.5 h, 0.5 μM: 30 min (data in parentheses). A general note: Liver microsomes are a subcellular fraction often used to study metabolism.
For data set [5] the following is noted: human, in vivo; cited from earlier work.
Data set [6] deals with Salmonella typhimurium (TA98 and TA100). The note with it: cited from earlier work.
For data set [7] the following is noted: cited from earlier work.
The test system of a further data set is Caco-2. The arrangement: method as in PMID 25261338. As to conditions: Caco-2 data; cited from earlier work.

“Also recorded” adds a separate entry of the source. Where two headings read alike, the source gives them in different places. Some results are limits rather than exact numbers.

The term AUC(0-t) denotes the area under the concentration-time curve up to a stated or last time point. Usually Cmax stands for the peak of the concentration-time curve. As a reminder, the Papp A→B is how fast a substance crosses the layer from the apical side. Higher therefore signals fast passage. Take `O=[N+]([O-])c1cn2c(n1)OC[C@H](Oc1ccc(OC(F)(F)F)cc1)C2` [R-6, (6R)-2-Nitro-6-[4-(trifluoromethoxy)phenoxy]-6,7-dihydro-5H-imidazo[2,1-b][1,3]oxazine]: the AUC(0-t) worked out at 272 µg·h/mL in “Mouse pharmacokinetics” and 80.6 µg·h/mL in the data set “Rat pharmacokinetics”. The Cmax was 21 µg/mL in “Mouse pharmacokinetics” and 5.2 µg/mL in “Rat pharmacokinetics”. For the same compound, in data set [1], the “mutagenic effect (Ames test)” value is on record as “negative; also recorded: no ^d”. Also, the Papp A→B at […], 2 µM in [2] is 324 nm/s.

The term bioavailability denotes dose-corrected exposure relative to a reference, in per cent. The fraction remaining is the share of the starting amount still present when the sample was taken. Regarding `O=[N+]([O-])c1cn2c(n1)OC[C@H](OCc1ccc(-c3ccc(F)cc3F)cn1)C2` [R-96], in the data set “Hamster pharmacokinetics”, the bioavailability lay in the range of 21 to 37%. In addition, the fraction remaining at 1 h, 1 μM in [3] and in data set [4] was 57 to 59% in each case.

For `O=[N+]([O-])c1cn2c(n1)OC[C@@H](OCc1cccc(-c3ccc(OC(F)(F)F)cc3)n1)C2` [S-77], the share remaining at 0.5 h, 0.5 μM in [3] and in data set [4] was more than 70% in each case.

For the compound `O=[N+]([O-])c1cn2c(n1)OC[C@H](OCc1ccc(-c3ccc(OC(F)(F)F)cc3F)cn1)C2` [R-89], in the data set “Mouse pharmacokinetics”, the AUC(0-t) came to 265 µg·h/mL and the concentration peaked (Cmax) at 32 µg/mL.

The term half-life denotes the time in which the quantity being followed falls by half. Higher therefore signals slow loss. On to `O=[N+]([O-])c1cn2c(n1)OCC(COc1ccc(OC(F)(F)F)cc1)C2` (stereo not drawn) [compound 24], for which, in “Mouse pharmacokinetics” (Swiss albino, iv, 1 mg/kg), the half-life is 2 h.

In the case of `O=[N+]([O-])c1cn2c(n1)OC[C@H](Oc1ccc(C(F)(F)F)cn1)C2` [R-136, (6R)-2-Nitro-6-{[5-(trifluoromethyl)pyridin-2-yl]oxy}-6,7-dihydro-5H-imidazo[2,1-b][1,3]oxazine], the share remaining at 1 h, 1 μM in data set [3] and in data set [4] was 90 to 92% in each case. In addition, the “mutagenic effect (Ames test)” value in data set [1] was “positive”.

With `O=[N+]([O-])c1cn2c(n1)OC[C@H](OCc1ccc(-c3ccc(OC(F)(F)F)cc3)cn1)C2` [R-84], in “Mouse pharmacokinetics”, the AUC(0-t) is 211 µg·h/mL and the maximum concentration (Cmax) stood at 16 µg/mL.

With `O=[N+]([O-])c1cn2c(n1)OC[C@@H](OCc1ccc(OC(F)(F)F)cc1)C2` [S-1, (6S)-2-nitro-6-{[4-(trifluoromethoxy)benzyl]oxy}-6,7-dihydro-5H-imidazo[2,1-b][1,3]oxazine], the “half-life in clinical trials for TB” value in data set [5] is 16 to 18 h.

With `O=[N+]([O-])c1cn2c(n1)OC[C@@H](OCc1cccc(-c3ccc(F)cc3)n1)C2` [S-81], the fraction remaining at 0.5 h, 0.5 μM in data set [3] and in data set [4] was more than 70% each time.

Take `O=[N+]([O-])c1cn2c(n1)OC[C@@H](OCc1ccc(-c3ccc(OC(F)F)cc3)cn1)C2` [S-92]: the amount remaining at 0.5 h, 0.5 μM in data set [3] and in [4] was more than 70% throughout.

As for `O=[N+]([O-])c1cn2c(n1)OC[C@@H](OCc1ccc(-c3ccc(OC(F)(F)F)cc3Cl)cn1)C2` [S-91], the share remaining at 0.5 h, 0.5 μM in data set [3] and in [4] was more than 70% in each case.

Consider `O=[N+]([O-])c1cn2c(n1)OCC(COc1ccc(-c3ccc(F)cc3)nc1)C2` (stereo not drawn) [compound 117], for which the bioavailability in the data set “Mouse pharmacokinetics” (Swiss albino) is 11 to 15%.

In the data set “Mouse pharmacokinetics” (Swiss albino), `O=[N+]([O-])c1cn2c(n1)OCC(COc1ccc(-c3ccc(OC(F)(F)F)cc3)nc1)C2` (stereo not drawn) [compound 116] displayed a bioavailability of 11 to 15%.

Regarding `CSc1ccc(OCc2ncc([N+](=O)[O-])n2C)cc1` [fexinidazole], the Ames test result in data set [6] is on record as “positive”.

Turning to `C[C@]1(COc2ccc(OC(F)(F)F)cc2)Cn2cc([N+](=O)[O-])nc2O1` [compound 4], the “LogD (measured)” value in data set [7] is listed as 3.10. In addition, in [6], the “mutagenic effect (Ames test)” value is recorded as “no”. For the same compound, in the data set with Caco-2, the “permeability, Papp A to B” value is 22.6 ×10^–6 cm/s and the “permeability, Papp B to A” value is reported as 24.7 ×10^–6 cm/s.

Consider `O=[N+]([O-])c1cn2c(n1)OC[C@@H](OCc1ccc(-c3ccc(OC(F)(F)F)cc3F)cn1)C2` [S-89], for which the fraction remaining at 0.5 h, 0.5 μM in [3] and in [4] was more than 70% each time.

Take `O=[N+]([O-])c1cn2c(n1)OC[C@H](OCc1ccc(-c3ccc(F)cc3F)nc1)C2` [R-106]: the bioavailability in “Hamster pharmacokinetics” was in the range of 21 to 37%.
